“And” between values parts separate entries of the source, which are not always exact repeats. Equal entries are not always repeated.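 Five concentrations, 48 hours, 96-well plates. GI50 is the concentration that inhibits growth by half. TGI denotes the concentration required for complete inhibition of growth.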
Tests used:
Experiment in all cases: NCI tumour cell line growth inhibition, 48 h
MDA-N = system: MDA-N
DMS 273 small cell lung = system: DMS 273 small cell lung
SNB-78 CNS = system: SNB-78 CNS
KM20L2 colon = system: KM20L2 colon
XF 498 CNS = system: XF 498 CNS
DMS 114 small cell lung = system: DMS 114 small cell lung
LXFL 529 NSCLC = system: LXFL 529 NSCLC
HOP-18 NSCLC = system: HOP-18 NSCLC
RXF-631 renal = system: RXF-631 renal

Structure (SMILES)	TGI (MDA-N)	TGI (DMS 273 small cell lung)	TGI (SNB-78 CNS)	TGI (KM20L2 colon)	TGI (XF 498 CNS)	TGI (DMS 114 small cell lung)	TGI (LXFL 529 NSCLC)	TGI (HOP-18 NSCLC)	other results
C[C@]12CCC3=NCCN3C1=CC[C@@H]1[C@@H]2CC[C@@]2(C)[C@H]1CC[C@]2(C)O	> 100 µM								
O=c1cccccc1[O-].O=c1cccccc1[O-].O=c1cccccc1[O-].[Sm+3]		> 100 µM	> 100 µM	> 100 µM					GI50 (DMS 273 small cell lung): 11.3 µM; GI50 (SNB-78 CNS): 30.6 µM; GI50 (KM20L2 colon): 15.4 µM
COC(=O)C1CCC(=O)N1/C(C)=N/NC(=O)Nc1ccc(Cl)c(Cl)c1 (configuration not stated)		> 100 µM	> 100 µM	> 100 µM	> 100 µM	> 100 µM	> 100 µM		
CC(=O)[O-].[Mn+3].[O-]c1ccc(Cl)cc1C=NCCN=Cc1cc(Cl)ccc1[O-]		> 100 µM	> 100 µM			> 100 µM	> 100 µM	> 100 µM	GI50 (DMS 273 small cell lung): > 100 µM; GI50 (HOP-18 NSCLC): 51.9 µM; GI50 (DMS 114 small cell lung): > 100 µM; GI50 (SNB-78 CNS): > 100 µM; GI50 (LXFL 529 NSCLC): > 100 µM
CCOc1ccccc1NC(=O)C1=C(C)NC(C)=C(C(=O)Nc2ccccc2OCC)C1c1ccc([N+](=O)[O-])cc1		> 100 µM	> 100 µM	> 100 µM		> 100 µM	> 100 µM	> 100 µM	TGI (RXF-631 renal): > 100 µM
C/C(CC(=O)Nc1cccc([N+](=O)[O-])c1)=N\NC(=O)C[n+]1ccccc1			> 100 µM	> 100 µM	> 100 µM	> 100 µM	> 100 µM		
O=C(CC1=Nc2nnc(-c3nnc4n3C(=O)C(CC(=O)C3CC3)=N4)n2C1=O)C1CC1		> 100 µM	> 100 µM	> 100 µM		> 100 µM	> 100 µM		
COC(=O)c1sc(=NC(=S)N2CCCCC2)sc1C(=O)OC		> 100 µM	> 100 µM	> 100 µM		> 100 µM	> 100 µM	> 100 µM	TGI (RXF-631 renal): > 100 µM
CN(C)c1ccc(C2CC(C)(O)Oc3cc4c(cc32)OCO4)cc1 (configuration not stated)	> 100 µM								
C=C(Cl)[C@@](Cl)(CBr)CC[C@@H](Br)C(C)(C)Cl									GI50 (MDA-N): 1690 nM
COc1ccc2c(c1)[n+](=O)c(C(C)=O)c(C)n2[O-]			> 100 µM		> 100 µM	> 100 µM	> 100 µM	> 100 µM	
Cc1nc2c(Br)cc(Br)cc2c(=O)n1-c1ccccc1NC1OCC(O)C(O)C1O (configuration not stated)	> 100 µM								
N#CCCN(CCC#N)c1ccc(C=Nc2ccc(F)cc2)cc1	> 100 µM	> 100 µM	> 100 µM	> 100 µM	> 100 µM	> 100 µM	> 100 µM	> 100 µM	TGI (RXF-631 renal): > 100 µM
CC(=O)OCC1OC(n2c(=S)n(-c3ccccc3)c(=O)c3cc(Br)cc(Br)c32)C(OC(C)=O)C(OC(C)=O)C1OC(C)=O (configuration not stated)		> 100 µM	> 100 µM	> 100 µM	69.7 µM and > 100 µM	> 100 µM	> 100 µM		GI50 (XF 498 CNS): 17.2 µM and 49.1 µM
CC1OC(OC2C(O[C@H]3CC[C@@]4(C)C(=CC[C@H]5[C@@H]6C[C@@H]7O[C@]8(CC[C@@H](C)CO8)[C@@H](C)[C@@H]7[C@@]6(C)CC[C@@H]54)C3)OC(CO)C(OC3OC(CO)C(O)C3O)C2O)C(O)C(O)C1O (some centres not stated)	1.46 µM and 2.34 µM								GI50 (MDA-N): 1130 nM
COc1ccc(-c2cc(-c3ccco3)c(C#N)c(=O)[nH]2)cc1		> 100 µM	> 100 µM	> 100 µM		> 100 µM	> 100 µM	74.8 µM	TGI (RXF-631 renal): > 100 µM
Nc1ccc(C(=O)/C=C/c2ccccc2O)cc1			> 100 µM	> 100 µM	> 100 µM		> 100 µM		TGI (RXF-631 renal): > 100 µM
O=C(Oc1ccc2c(c1)CN(Cc1ccccc1)CO2)c1ccccc1	30.7 µM								
COc1cc(CCc2ccc(OC(C)=O)cc2)cc(OC)c1OC		> 100 µM	> 100 µM	> 100 µM		> 100 µM	> 100 µM	> 100 µM	
